Laboratory results reported in patent publication US12618045B2, “Automated method for preparing retinal pigment epithelium cells” (CENTRE D'ETUDE DES CELLULES SOUCHES (CECS), priority 2019, dated 2026).

Key:
[1] = system: hESCs (hESC line RC-0913); experiment: Immunostaining of marker proteins during differentiation of hESCs; assay type: cell-based, human
Experimental: (§1) Clinical-grade hESC line RC-0913, was used and cultured in feeder free conditions using mTeSR™ Medium (StemCell technologies) and hESC qualified Matrigel (Corning). Cells were banked at passage 36 and used for RPE differentiation between passage 38 and 45. Cells were plated at 5×10^4 cells per cm^2 and grown until they reached 80 percent of confluence before switching to a differentiation medium composed of Dulbecco's modified Eagle's medium (high glucose, Thermo Fisher Scientific) supplemented with 50 μM β-mercaptoethanol, 1× minimum essential medium-nonessential amino acids (Thermo Fisher Scientific) and 20% (D0-D42) or 4% (after passage 1) of knockout serum replacement (KSR, Thermo Fisher Scientific). During all the differentiation process the medium was changed every 2/3 days.
(§2) For the referred “directed differentiation” protocol, 10 mM Nicotinamide (Sigma), 100 ng/ml Activin A
(§3) (Peprotech) and 3 μM CHIR99021 (Tocris) were added sequentially to the basal differentiation medium at specific time points (FIG. 2A).
hESC-RPE cells were grown on Matrigel-coated 96 or 24-well plates. Adherent cells were fixed in 4% PFA for 10 min at room temperature (RT) and rinsed 3 times with PBS. After 30 min in blocking solution (10% FBS in 0.1% Triton PBS) at RT, cells were incubated with primary antibodies overnight at 4° C. After 3 washes in PBS, appropriate Alexa Fluor-conjugated secondary antibodies (Invitrogen) were added at 1:500 for 1 h at RT in presence of DAPI (Invitrogen).
Images were acquired with an Axio observer Z1 microscope (Zeiss) with a Hamamatsu ORCA-flash 4.0 camera and a spinning disk unit (Yokogawa CSU-X1-A1N-E; Camera evolve, EMCCD 512) with Metamorph software or with a LSM-800 confocal microscope (Zeiss) with Zen software. Images were exported, analyzed and processed with Fiji software. […] The quantification of pigmented areas was performed after manual delimitation of culture dish areas using Fiji software. Pictures were then binarized to 8-bit images using a fixed intensity threshold and the black area fraction was measured (not herein shown).

[2] = system: hESCs (hESC line RC-0913); experiment: RT-qPCR of retinal development markers during differentiation of hESCs; assay type: cell-based, human
Experimental: as §1, §2, §3
Total RNAs were extracted using RNAeasy Plus Mini kit (Qiagen) and cDNA synthesized using SuperScript III (Invitrogen). Quantitative real-time RT-PCR was performed using a Quant Studio 12K flex (Applied Biosystems) with HiGreen qPCR Master Mix (Thermo Fisher Scientific). Experiments were performed with at least three technical replicates per plate and expression levels were normalized to 18S. Relative expression compared to hESCs gene expression levels were determined by calculating the 2-ΔΔCt.

[3] = CHIR99021 from day 14 to day 35-42

Which “MITF+ cells” value ([1]; day 21, CHIR99021 from day 14) does the source give for `Cc1c[nH]c(-c2cnc(NCCNc3ccc(C#N)cn3)nc2-c2ccc(Cl)cc2Cl)n1` [CHIR99021] here?
The value was 87.5%±12.5%.

And the VSX2 positive cells ([1]; day 21, CHIR99021 from day 14)?
Its VSX2 positive cells is “absence”.

What about the “MITF expression (mRNA)” value [2, 3] of the same molecule?
Its value is “continuous increased expression”.

And the “VSX2 mRNA levels” value [2, 3]?
Its value is “acute decreased expression”.

How did the “cells co-expressing LHX2 and PAX6 proteins” value ([1]; day 7 after Nicotinamide treatment, n=3) turn out when `NC(=O)c1cccnc1` [Nicotinamide] was run?
Its value is 86.8%±4.3%.

What about the “transient expression of early eye field transcription factors SIX3 and RAX (mRNA)” value ([2]; Nicotinamide 10 mM, first 7 days of differentiation, compared to spontaneous protocol, p<0.01) of the same molecule?
The value was “significantly enhanced”.

And the “expression of pluripotency marker NANOG (mRNA)” value ([2]; Nicotinamide 10 mM, first 7 days, compared to spontaneous protocol, p<0.01)?
Its value is “higher decrease”.

B1: Activin A: member of TGF β superfamily, second differentiating agent, 100 ng/ml (Peprotech) (protein, UniProt P08476 311-426, looked up)
Inhibin beta A chain: GLECDGKVNICCKKQFFVSFKDIGWNDWIIAPSGYHANYCEGECPSHIAGTSGSSLSFHSTVINHYRMRGHSPFANLKSCCVPTKLRPMSMLYYDDGQNIIKKDIQNMIVEECGCS
modifications: Inhibin beta A chain
For B1, which “RAX and SIX3 mRNA levels” value ([2]; Activin A day 7 to day 14) is on record?
The value was “decreased”.

And the “expression of optic vesicle transcription factors VSX2 and MITF (mRNA)” value ([2]; Activin A day 7 to day 14, compared to spontaneous differentiation, p≤0.05)?
Its value is “significantly increased”.
